Measurements reported in ChEMBL document CHEMBL4725344, “Development of Highly Potent Carbazole Amphiphiles as Membrane-Targeting Antimicrobials for Treating Gram-Positive Bacterial Infections” (J Med Chem, 2020).
Values after ≈ are worked out from the molar mass of the structure shown. Active and inactive are the calls of the source. The calls are words filed in the database; no cut-off is given here.

Experiments:
Staphylococcus aureus [1] = test: Antibacterial activity against Staphylococcus aureus ATCC 29213 measured after 24 hrs by microplate reader analysis; format: functional
Staphylococcus aureus [2] = test: Antibacterial activity against methicillin-resistant Staphylococcus aureus N315 measured after 24 hrs by microplate reader analysis; format: functional
Staphylococcus aureus [3] = test: Antibacterial activity against methicillin-resistant Staphylococcus aureus NCTC 10442 measured after 24 hrs by microplate reader analysis; format: functional
[4] = Hemolytic activity in rabbit erythrocytes measured after 1 hr by microplate reader analysis; format: ADME, cell-based, Oryctolagus cuniculus, Erythrocyte
[5] = Selectivity index, ratio of HC50 for rabbit erythrocytes to MIC for Staphylococcus aureus ATCC 29213; format: toxicity; details: read-out: Selectivity Index
[6] = Selectivity index, ratio of HC50 for rabbit erythrocytes to MIC for methicillin-resistant Staphylococcus aureus N315; format: toxicity; details: read-out: Selectivity Index
[7] = Selectivity index, ratio of HC50 for rabbit erythrocytes to MIC for methicillin-resistant Staphylococcus aureus NCTC 10442; format: toxicity; details: read-out: Selectivity Index
[8] = Hemolytic activity in rabbit erythrocytes assessed as hemolysis at 200 ug/ml measured after 1 hr by microplate reader analysis relative to control; format: ADME, cell-based, Oryctolagus cuniculus, Erythrocyte; details: at 200 µg/mL, read-out: Activity
Staphylococcus aureus [9] = test: Bactericidal activity against Staphylococcus aureus ATCC 29213 assessed as log reduction in bacterial count at 8 times MIC preincubated for 1 hr followed by replating on MHA medium measured after 24 hrs by time kill assay; format: functional; details: time 25 hrs
Staphylococcus aureus [10] = test: Bactericidal activity against Staphylococcus aureus ATCC 29213 assessed as log reduction in bacterial count at 4 times MIC preincubated for 4 hrs followed by replating on MHA medium measured after 24 hrs by time kill assay; format: functional; details: time 28 hrs
Staphylococcus aureus [11] = test: Antibacterial activity against Staphylococcus aureus ATCC 29213 at 0.5 times MIC passaged daily for 21 days; format: functional, organism-based; details: time 21.0 day
Cell membrane [12] = test: Induction of inner membrane permeabilization in Staphylococcus aureus ATCC 29213 measured for 1 hr by SYTOX green dye based fluorescence assay; format: subcellular
Cell membrane [13] = test: Induction of inner membrane permeabilization in methicillin-resistant Staphylococcus aureus NCTC 10442 measured for 1 hr by SYTOX green dye based fluorescence assay; format: subcellular
Cell membrane [14] = test: Disruption of cell membrane integrity in Staphylococcus aureus ATCC 29213 assessed as increase in red fluorescence at 8 times MIC measured after 2 hrs by Syto9/propidium iodide Live/dead staining based laser confocal microscopic analysis; format: subcellular
Cell membrane [15] = test: Induction of cell membrane damage in Staphylococcus aureus ATCC 29213 assessed as wrinkle formation at 8 times MIC measured after 2 hrs by SEM analysis; format: subcellular
Cell membrane [16] = test: Induction of cell membrane damage in Staphylococcus aureus ATCC 29213 assessed as membrane perforation at 8 times MIC measured after 2 hrs by SEM analysis
Cell membrane [17] = test: Induction of cell membrane damage in Staphylococcus aureus ATCC 29213 assessed as membrane perforation at 8 times MIC measured after 2 hrs by TEM analysis
Staphylococcus aureus [18] = test: Antibacterial activity against Staphylococcus aureus ATCC 29213 measured after 24 hrs in presence of LTA by microplate reader analysis; format: functional
Staphylococcus aureus [19] = test: Antibacterial activity against methicillin-resistant Staphylococcus aureus NCTC 10442 measured after 24 hrs in presence of LTA by microplate reader analysis; format: functional
Bacillus subtilis [20] = test: Displacement of BODIPYTM-TR-cadaverine from Bacillus subtilis LTA at MIC measured after 30 mins by fluorescence assay relative to control
Bacillus subtilis [21] = test: Displacement of BODIPYTM-TR-cadaverine from Bacillus subtilis LTA at 2 times MIC measured after 30 mins by fluorescence assay relative to control
Bacillus subtilis [22] = test: Displacement of BODIPYTM-TR-cadaverine from Bacillus subtilis LTA at 4 times MIC measured after 30 mins by fluorescence assay relative to control
Bacillus subtilis [23] = test: Displacement of BODIPYTM-TR-cadaverine from Bacillus subtilis LTA at 8 times MIC measured after 30 mins by fluorescence assay relative to control
[24] = Cytotoxicity against mouse corneal epithelial cells assessed as cell viability at […] ug/ml measured after 24 hrs by CCK8 assay relative to control; format: cell-based; details: dose 1.56 µg/ml, read-out: Activity
[25] = Cytotoxicity against mouse corneal epithelial cells assessed as cell viability at 3.125 ug/ml measured after 24 hrs by CCK8 assay relative to control; format: cell-based; details: at 3.125 µg/mL, read-out: Activity
[26] = Cytotoxicity against mouse corneal epithelial cells assessed as cell viability at 6.25 ug/ml measured after 24 hrs by CCK8 assay relative to control; format: cell-based; details: at 6.25 µg/mL, read-out: Activity
[27] = Cytotoxicity against mouse corneal epithelial cells assessed as cell viability at 12.5 ug/ml measured after 24 hrs by CCK8 assay relative to control; format: cell-based; details: at 12.5 µg/mL, read-out: Activity
[28] = Cytotoxicity against mouse corneal epithelial cells assessed as cell viability […] measured after 24 hrs by CCK8 assay relative to control; format: cell-based; details: dose 25 µg/ml, read-out: Activity
[29] = Cytotoxicity against mouse corneal epithelial cells assessed as cell viability at 50 ug/ml measured after 24 hrs by CCK8 assay relative to control; format: cell-based; details: at 50 µg/mL, read-out: Activity
[30] = Cytotoxicity against mouse corneal epithelial cells assessed as cell viability at 100 ug/ml measured after 24 hrs by CCK8 assay relative to control; format: cell-based; details: at 100 µg/mL, read-out: Activity
[31] = Cytotoxicity against mouse J774.A1 cells assessed as cell viability at […] ug/ml measured after 24 hrs by CCK8 assay relative to control; format: cell-based; details: dose 1.56 µg/ml, read-out: Activity
[32] = Cytotoxicity against mouse J774.A1 cells assessed as cell viability at 3.125 ug/ml measured after 24 hrs by CCK8 assay relative to control; format: cell-based; details: at 3.125 µg/mL, read-out: Activity
[33] = Cytotoxicity against mouse J774.A1 cells assessed as cell viability at 6.25 ug/ml measured after 24 hrs by CCK8 assay relative to control; format: cell-based; details: at 6.25 µg/mL, read-out: Activity
[34] = Cytotoxicity against mouse J774.A1 cells assessed as cell viability at 12.5 ug/ml measured after 24 hrs by CCK8 assay relative to control; format: cell-based; details: at 12.5 µg/mL, read-out: Activity
[35] = Cytotoxicity against mouse J774.A1 cells assessed as cell viability at 25 ug/ml measured after 24 hrs by CCK8 assay relative to control; format: cell-based; details: at 25 µg/mL, read-out: Activity
[36] = Cytotoxicity against mouse J774.A1 cells assessed as cell viability at 50 ug/ml measured after 24 hrs by CCK8 assay relative to control; format: cell-based; details: at 50 µg/mL, read-out: Activity
[37] = Cytotoxicity against mouse J774.A1 cells assessed as cell viability at 100 ug/ml measured after 24 hrs by CCK8 assay relative to control; format: cell-based; details: at 100 µg/mL, read-out: Activity
[38] = Cytotoxicity against mouse corneal epithelial cells assessed as reduction in cell viability measured after 24 hrs by CCK8 assay; format: cell-based
[39] = Cytotoxicity against mouse J774.A1 cells assessed as reduction in cell viability measured after 24 hrs by CCK8 assay; format: cell-based
Staphylococcus aureus [40] = test: Antibacterial activity against Staphylococcus aureus ATCC 29213 infected in cyclophosphamide-immunosuppressed C57BL6 mouse cornea assessed as log reduction in corneal bacterial count at 0.5% administered as topical solution for 4 times per day for 3 days and measured post-last dose by standard plate counting method; format: functional; details: time 3 day
[41] = Toxicity in C57BL6 mouse assessed as corneal damage at 0.5% administered as topical solution for 4 times per day for 3 days and measured post-last dose by fluorescein sodium staining based slit-lamp biomicroscopic method; details: in vivo, topical_or_ocular, 72 h, time 3 day

CC(C)=CCn1c2ccccc2c2c(OCC(O)CNC(=N)N)cccc21 (stereo unspecified)
MIC (Staphylococcus aureus [1]): 1.56 µg/mL (≈ 4.26 µM) | MIC (Staphylococcus aureus [2]): 0.78 µg/mL (≈ 2.13 µM) | MIC (Staphylococcus aureus [3]): 1.56 µg/mL (≈ 4.26 µM) | HC50 at 1 h [4]: > 200 µg/mL | selectivity ratio [5]: > 128 | selectivity ratio [6]: > 128 | selectivity ratio [7]: > 128 | hemolysis at 1 h, 200 ug/ml [8]: 3.5% | log(activity) (Staphylococcus aureus [9]): 3.21 | log(activity) (Staphylococcus aureus [10]): 3.45 | Activity (Staphylococcus aureus [11]): Active | Activity (Cell membrane [12]): Dose-dependent effect | Activity (Cell membrane [13]): Dose-dependent effect | Activity (Cell membrane [14]): Active | Activity (Cell membrane [15]): Active | Activity (Cell membrane [16]): Active | Activity (Cell membrane [17]): Active | MIC (Staphylococcus aureus [18]): 1.56 µg/mL | MIC (Staphylococcus aureus [19]): 1.56 µg/mL | inhibition (Bacillus subtilis [20]): 12.9% | inhibition (Bacillus subtilis [21]): 22.3% | inhibition (Bacillus subtilis [22]): 28.8% | inhibition (Bacillus subtilis [23]): 35.8% | viability at 24 h, 1.56 ug/ml [24]: 88.3% | viability at 24 h, 3.125 ug/ml [25]: 87.9% | viability at 24 h, 6.25 ug/ml [26]: 85.3% | viability at 24 h, 12.5 ug/ml [27]: 75.1% | viability at 24 h [28]: 34.1% | viability at 24 h, 50 ug/ml [29]: 8.52% | viability at 24 h, 100 ug/ml [30]: 6.65% | viability at 24 h, 1.56 ug/ml [31]: 96.3% | viability at 24 h, 3.125 ug/ml [32]: 95% | viability at 24 h, 6.25 ug/ml [33]: 86.2% | viability at 24 h, 12.5 ug/ml [34]: 80.5% | viability at 24 h, 25 ug/ml [35]: 78.2% | viability at 24 h, 50 ug/ml [36]: 28.1% | viability at 24 h, 100 ug/ml [37]: 20.5% | CC50 at 24 h [38]: 23.8 µg/mL (≈ 65 µM) | CC50 at 24 h [39]: 37.2 µg/mL (≈ 102 µM) | log(activity) (Staphylococcus aureus [40]): 4.17 | Activity [41]: Non-Toxic
